Experimental data taken from patent publication EP0719251B1, “BICYCLO (2.2.2) OCTANE DERIVATIVES CHOLECYSTOKININ AND/OR GASTRIN ANTAGONISTS” (JAMES BLACK FOUNDATION LIMITED, priority 1993, dated 1995).

Key:
CCKA = molecular target: T1, CCKA (Cavia porcellus, UniProt Q63931); test: CCKA binding assay in guinea-pig pancreas membranes; conditions: [125I]-CCK8(S) 200pM; for Ki: containing 0.375 µM PD134,308, read-out: CCKA pKi (converted)
T1 construct: The pancreatata were removed from male guinea-pigs (200-300g; Dunkin Hartley); from tissue; host or cells: pancreas membranes of male Dunkin Hartley guinea-pigs
T1 sequence (Q63931 1-430): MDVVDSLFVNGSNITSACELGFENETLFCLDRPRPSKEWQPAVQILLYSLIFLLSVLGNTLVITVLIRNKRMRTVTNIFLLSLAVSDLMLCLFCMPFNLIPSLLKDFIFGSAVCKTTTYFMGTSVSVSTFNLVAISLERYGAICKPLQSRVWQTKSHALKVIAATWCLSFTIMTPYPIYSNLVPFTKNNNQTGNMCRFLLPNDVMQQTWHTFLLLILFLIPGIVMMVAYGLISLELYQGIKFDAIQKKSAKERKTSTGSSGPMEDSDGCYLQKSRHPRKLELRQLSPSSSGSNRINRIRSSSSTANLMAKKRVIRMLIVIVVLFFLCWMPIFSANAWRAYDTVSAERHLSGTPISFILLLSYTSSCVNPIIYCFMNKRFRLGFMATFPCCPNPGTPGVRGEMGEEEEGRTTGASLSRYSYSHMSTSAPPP
In short: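 Competition binding of [125I]-CCK8(S) (200 pM in the added solution) to male guinea-pig pancreas membranes (1 mg/ml wet weight) containing 0.375 µM PD134,308, in HEPES buffer pH 7.2. Incubated 150 min at 21 ± 3°, then filtered. Bound radioactivity gamma-counted; non-specific binding defined with 100nM L-364,718.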

gastrin = molecular target: T2, gastrin (Rattus norvegicus, UniProt P30553); test: gastrin antagonist activity in an immature rat stomach assay; conditions: isolated immature rat stomach, cumulative pentagastrin dose-response curves, acid secretion; for Kb: read-out: Gastrin pKB (converted)
T2 construct: The stomach was excised and flushed with ca. 1 ml of unbuffered physiological saline solution; from tissue; host or cells: isolated whole stomach of immature rats (33-50 g, ca. 21 days old)
T2 sequence (P30553 1-452): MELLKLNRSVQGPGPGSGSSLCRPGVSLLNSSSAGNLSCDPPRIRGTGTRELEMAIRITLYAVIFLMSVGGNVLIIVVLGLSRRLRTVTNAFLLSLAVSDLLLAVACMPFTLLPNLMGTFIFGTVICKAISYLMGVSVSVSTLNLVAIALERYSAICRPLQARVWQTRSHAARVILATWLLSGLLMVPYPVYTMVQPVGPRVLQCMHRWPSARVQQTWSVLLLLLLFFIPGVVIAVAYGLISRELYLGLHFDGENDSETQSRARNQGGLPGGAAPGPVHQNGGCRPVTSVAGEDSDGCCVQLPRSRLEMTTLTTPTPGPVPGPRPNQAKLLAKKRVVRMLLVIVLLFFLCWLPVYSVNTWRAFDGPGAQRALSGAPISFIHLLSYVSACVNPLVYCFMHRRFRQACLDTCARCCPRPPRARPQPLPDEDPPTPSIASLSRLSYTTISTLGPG
In short: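 Isolated stomachs from immature rats (33-50 g, ca. 21 days) perfused at 1 ml min^-1 with O2-gassed unbuffered saline, perfusate pH monitored by electrode. After 120 min stabilisation, compounds added to serosal bath; cumulative pentagastrin dose-response curves begun 60 min later.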

CCKB receptor = molecular target: T3, CCKB receptor (Mus musculus, UniProt P56481); test: radioligand binding assay at the CCKB receptor in mouse cortical membranes; conditions: [125I]-CCK8S 200pM, 150 min at 21 ± 3°C; for Ki: read-out: CCKB pKi (converted)
T3 construct: The whole brains from male mice (CD1 22-25g; Charles River) were removed; from tissue; host or cells: cerebral cortex membranes of male CD1 mice
T3 sequence (P56481 1-453): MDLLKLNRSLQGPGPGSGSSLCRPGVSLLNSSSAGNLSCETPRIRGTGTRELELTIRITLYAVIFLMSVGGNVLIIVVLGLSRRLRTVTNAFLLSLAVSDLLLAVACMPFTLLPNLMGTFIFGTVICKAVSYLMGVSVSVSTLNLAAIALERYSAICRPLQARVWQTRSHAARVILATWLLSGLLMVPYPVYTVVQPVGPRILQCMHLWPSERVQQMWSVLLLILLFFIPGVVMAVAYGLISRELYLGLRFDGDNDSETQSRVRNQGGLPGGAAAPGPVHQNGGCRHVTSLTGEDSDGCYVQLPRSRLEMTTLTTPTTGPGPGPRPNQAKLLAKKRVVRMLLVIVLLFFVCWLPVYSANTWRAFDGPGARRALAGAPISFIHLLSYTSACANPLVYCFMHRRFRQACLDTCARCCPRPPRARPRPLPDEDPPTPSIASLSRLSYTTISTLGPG
In short: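 Radioligand binding was quantified by gamma counting after filtration through GF/B filters and cold 50 mM Tris-HCl (pH 7.4) washes. Tissue source was male CD1 mouse cortex, homogenised and twice centrifuged, then resuspended at 2 mg.ml^-1 original wet weight in pH 7.2 HEPES buffer containing bacitracin.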

Compound | Ki (CCKA) [µM] | Kb (gastrin) [µM] | Ki (CCKB receptor) [µM] | CCKA pKi (CCKA; containing 0.375 µM PD134,308) | Gastrin pKB (gastrin; 60 min) | CCKB pKi (CCKB receptor)
COC(=O)c1cc(NC(=O)[C@H](Cc2ccccc2)NC(=O)C2C3c4ccccc4C(c4ccccc43)C2C(=O)NCC23CC4CC(CC(C4)C2)C3)cc(C(=O)O)c1 (stereo partly drawn) [Example 42, cis-7-(1S-(3-carboxy-5-methoxycarbonyl-phenylaminocarbonyl)-2-phenylethylaminocarbcnyl)-8-(1-adamantanemethylaminocarbonyl) -2,3,5,6-dibenzobicyclo[2.2.2]octane] | 2 | 1.58 | 0.0316 | – | – | –
O=C(O)c1ccc(NC(=O)[C@H](Cc2ccccc2)NC(=O)C2C3c4ccccc4C(c4ccccc43)C2C(=O)NCC23CC4CC(CC(C4)C2)C3)cc1C(=O)O (stereo partly drawn) [Example 43, cis-7-(1S-(3,4-dicarboxyphenylaminocarbonyl)-2-phenylethylaminocarbonyl)-8-(1-adamantanemethylaminocarbonyl)-2,3,5,6-dibenzobicyclo [2.2.2]octane] | 1.26 | 0.794 | 0.1 | – | – | –
CC(C)(NC(=O)C1C2c3ccccc3C(c3ccccc32)C1C(=O)N[C@@H](Cc1ccccc1)C(=O)Nc1cc(C(=O)O)cc(C(=O)O)c1)C12CC3CC(CC(C3)C1)C2 (stereo partly drawn) [Example 49, cis-7-(1S-(3,5-dicarboxyphenylaminocarbonyl)-2-phenylethylaminocarbonyl)-8-(1-(1-adamantane)-1-methyl-ethylaminocarbonyl) -2,3,5,6-dibenzobicyclo[2.2.2]octane] | 2.51 | 0.01 | 0.0631 | – | – | –
O=C(O)c1cc(NC(=O)[C@H](Cc2ccccc2)NC(=O)C2C3c4ccccc4C(c4ccccc43)C2C(=O)NCCc2ccccc2)cc(C(=O)O)c1 (stereo partly drawn) [Example 53, cis-7-(1S-(3,5-dicarboxyphenylaminocarbonyl) -2-phenylethylaminocarbonyl) -8-(2-phenylethylaminocarbonyl) -2,3,5,6-dibenzobicyclo[2.2.2]octane] | 3.16 | 0.0794 | 0.00398 | – | – | –
cis-7-(1S-(3,5-dicarboxyphenylaminocarbonyl) -2-(2-thiophenyl)-ethylaminocarbonyl) -8-(1-adamantane-methylaminocarbonyl) -2,3,5,6-dibenzobicyclo[2.2.2]octane [Example 6] | – | – | – | 5.7 | 7.9 | 8.6
